Assay results published in patent publication US10676479B2, “Imidazolepyridine compounds and uses thereof” (Novartis AG, priority 2016, dated 2020).

Experiments:
[1] = molecular target: wild type PRC2 (wtPRC2) complex (Homo sapiens (Human), UniProt O75530); assay: EED LC-MS assay; format: biochemical; details: EED LC-MS Qualified assay; read-out: (b) IC50
Description: EED LC-MS Assay Representative compounds of the present invention were serially and separately diluted 3-fold in DMSO to obtain a total of eight or twelve concentrations. […] A 6 μL solution of 3 μM of the peptide substrate H3K27Me0 (histone H3[21-44]-biotin) in reaction buffer was added to initiate each reaction. […] The data were then fit to a dose response equation using the program Helios to get the IC50 values of the test compound.

[2] = system: H3K27 methylation in G401 cell; assay: ELISA (H3K27 methylation) assay; format: cell-based; details: Homo sapiens, G-401, ELISA Qualified assay, 48 h, read-out: (c) IC50
Method in brief: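 G401 cells given 3-fold serial dilutions (eight or twelve points, top 20 μM) for 48 h. Lysate ELISA for H3K27 methylation normalized to H3 signal, % inhibition versus DMSO, IC50 from dose-response fit.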

EED (1-441)-His protein = EED (1-441)-His protein (Homo sapiens (Human), UniProt O75530); assay: EED-H3K27Me3 peptide competition binding assay by AlphaScreen; details: EED Alphascreen binding Qualified assay
EED (1-441)-His protein, sequence (O75530 whole entry): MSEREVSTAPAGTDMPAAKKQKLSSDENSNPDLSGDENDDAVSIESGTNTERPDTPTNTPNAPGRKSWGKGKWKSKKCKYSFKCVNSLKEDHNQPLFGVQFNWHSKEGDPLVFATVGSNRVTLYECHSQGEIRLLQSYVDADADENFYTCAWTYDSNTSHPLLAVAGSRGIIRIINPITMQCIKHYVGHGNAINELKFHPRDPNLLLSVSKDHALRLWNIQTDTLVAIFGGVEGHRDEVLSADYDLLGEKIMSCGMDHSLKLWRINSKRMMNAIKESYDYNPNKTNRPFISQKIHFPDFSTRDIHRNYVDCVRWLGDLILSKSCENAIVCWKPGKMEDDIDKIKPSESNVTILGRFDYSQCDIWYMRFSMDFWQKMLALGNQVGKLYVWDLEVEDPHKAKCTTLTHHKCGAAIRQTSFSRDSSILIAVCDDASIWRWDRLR

wild type PRC2 (wtPRC2) complex, sequence (O75530 whole entry): as above
wild type PRC2 (wtPRC2) complex, sequence (Q15910 whole entry partner): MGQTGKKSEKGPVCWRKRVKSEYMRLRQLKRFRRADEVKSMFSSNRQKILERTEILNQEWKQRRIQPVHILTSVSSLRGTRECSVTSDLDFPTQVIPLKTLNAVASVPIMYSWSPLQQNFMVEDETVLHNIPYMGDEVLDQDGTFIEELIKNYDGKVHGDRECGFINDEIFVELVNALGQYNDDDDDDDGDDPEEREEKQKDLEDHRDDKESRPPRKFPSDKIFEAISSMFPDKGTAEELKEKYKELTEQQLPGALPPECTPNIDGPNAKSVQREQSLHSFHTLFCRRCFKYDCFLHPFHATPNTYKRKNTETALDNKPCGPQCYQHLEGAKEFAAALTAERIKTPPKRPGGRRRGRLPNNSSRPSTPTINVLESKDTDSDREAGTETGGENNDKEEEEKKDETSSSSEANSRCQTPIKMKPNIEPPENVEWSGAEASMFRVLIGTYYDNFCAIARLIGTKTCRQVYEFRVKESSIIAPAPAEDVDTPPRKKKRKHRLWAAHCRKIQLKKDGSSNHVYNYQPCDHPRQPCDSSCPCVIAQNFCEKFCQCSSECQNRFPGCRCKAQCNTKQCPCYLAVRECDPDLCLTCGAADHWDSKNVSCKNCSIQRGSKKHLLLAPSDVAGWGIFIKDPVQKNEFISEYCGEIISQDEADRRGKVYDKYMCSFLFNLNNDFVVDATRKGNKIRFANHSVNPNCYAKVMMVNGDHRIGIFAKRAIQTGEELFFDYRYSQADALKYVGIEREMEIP
wild type PRC2 (wtPRC2) complex, sequence (Q15022 whole entry partner): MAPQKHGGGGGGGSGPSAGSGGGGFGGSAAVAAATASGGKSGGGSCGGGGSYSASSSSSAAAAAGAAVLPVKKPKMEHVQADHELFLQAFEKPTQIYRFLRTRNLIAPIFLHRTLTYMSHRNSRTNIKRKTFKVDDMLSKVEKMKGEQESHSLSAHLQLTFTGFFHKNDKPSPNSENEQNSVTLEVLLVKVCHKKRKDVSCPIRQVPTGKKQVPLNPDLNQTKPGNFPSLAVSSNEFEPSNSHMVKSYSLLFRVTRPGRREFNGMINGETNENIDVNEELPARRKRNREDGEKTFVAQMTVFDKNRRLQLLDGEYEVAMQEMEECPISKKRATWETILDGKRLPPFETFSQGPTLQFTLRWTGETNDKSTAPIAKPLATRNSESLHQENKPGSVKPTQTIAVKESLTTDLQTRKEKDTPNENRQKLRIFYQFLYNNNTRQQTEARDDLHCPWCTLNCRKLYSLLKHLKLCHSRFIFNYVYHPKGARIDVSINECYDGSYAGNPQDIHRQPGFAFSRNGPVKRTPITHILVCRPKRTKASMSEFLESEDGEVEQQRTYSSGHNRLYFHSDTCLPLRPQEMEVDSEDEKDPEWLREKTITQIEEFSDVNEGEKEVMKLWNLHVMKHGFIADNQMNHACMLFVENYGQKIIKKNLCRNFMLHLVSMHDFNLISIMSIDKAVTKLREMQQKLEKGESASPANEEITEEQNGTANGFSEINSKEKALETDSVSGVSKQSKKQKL

IC50 [1] | IC50 [2] | IC50 (EED (1-441)-His protein) | Structure (SMILES)
0.0167 µM | 0.0455 µM | 0.0084 µM | Cc1ccc(-c2cnc(NCc3c(F)ccc4c3CCO4)n3cnc(C#N)c23)c(C)n1 [Example 75, 8-(2,6-dimethylpyridin-3-yl)-5-(((5-fluoro-2,3-dihydrobenzofuran-4-yl)methyl)amino)imidazo[1,5-c]pyrimidine-1-carbonitrile]
0.0195 µM | 0.0585 µM | 0.0114 µM | CC(C)Oc1ccc(-c2ncn3c(NCc4c(F)ccc5c4CCO5)ncc(-c4ccc(S(C)(=O)=O)cc4)c23)cc1 [Example 117, N-((5-fluoro-2,3-dihydrobenzofuran-4-yl)methyl)-1-(4-isopropoxyphenyl)-8-(4-(methylsulfonyl)phenyl)imidazo[1,5-c]pyrimidin-5-amine]
0.0121 µM | 0.0131 µM | 0.0105 µM | Cc1ncccc1-c1ncn2c(NCc3c(F)ccc4c3CCO4)ncc(-c3ccc(S(C)(=O)=O)cc3)c12 [Example 112, N-((5-fluoro-2,3-dihydrobenzofuran-4-yl)methyl)-1-(2-methylpyridin-3-yl)-8-(4-(methylsulfonyl)phenyl)imidazo[1,5-c]pyrimidin-5-amine]
0.0425 µM | 0.195 µM | 0.0296 µM | COc1cc(CNc2ncc(-c3cccnc3C)c3c(C#N)ncn23)c(F)cc1F [Example 89, 5-((2,4-difluoro-5-methoxybenzyl)amino)-8-(2-methylpyridin-3-yl)imidazo[1,5-c]pyrimidine-1-carbonitrile]
0.0096 µM | 0.0238 µM | 0.0076 µM | Cc1ncccc1-c1cnc(NCc2c(F)ccc3c2CCO3)n2cnc(-c3ccccc3)c12 [Example 111, N-((5-fluoro-2,3-dihydrobenzofuran-4-yl)methyl)-8-(2-methylpyridin-3-yl)-1-phenylimidazo[1,5-c]pyrimidin-5-amine]
0.0235 µM | 0.043 µM | 0.0241 µM | CS(=O)(=O)c1cccc(-c2cnc(NCc3c(F)ccc4c3CCO4)n3cncc23)c1 [Example 27, N-((5-fluoro-2,3-dihydrobenzofuran-4-yl)methyl)-8-(3-(methylsulfonyl)phenyl)imidazo[1,5-c]pyrimidin-5-amine]
0.0066 µM | 0.0132 µM | 0.0037 µM | Cc1cn(-c2cnc(NCc3c(F)ccc4c3CCO4)n3cncc23)cn1 [Example 62, N-((5-fluoro-2,3-dihydrobenzofuran-4-yl)methyl)-8-(4-methyl-1H-imidazol-1-yl)imidazo[1,5-c]pyrimidin-5-amine]
0.0247 µM | 0.0404 µM | 0.0087 µM | CN(C)CCc1ccc(-c2cnc(NCc3c(F)ccc4c3CCO4)n3cncc23)cn1 [Example 32, 8-(6-(2-(dimethylamino)ethyl)pyridin-3-yl)-N-((5-fluoro-2,3-dihydrobenzofuran-4-yl)methyl)imidazo[1,5-c]pyrimidin-5-amine]
0.0176 µM | 0.0025 µM | 0.0045 µM | N#Cc1ncn2c(NCc3c(F)ccc4c3CCO4)ncc(-c3ccc(N4CCNCC4)nc3)c12 [Example 86, 5-(((5-fluoro-2,3-dihydrobenzofuran-4-yl)methyl)amino)-8-(6-(piperazin-1-yl)pyridin-3-yl)imidazo[1,5-c]pyrimidine-1-carbonitrile]
0.0117 µM | 0.013 µM | 0.0034 µM | Cc1nn(CCO)c(C)c1-c1cnc(NCc2c(F)ccc3c2CCO3)n2cnc(C#N)c12 [Example 88, 5-(((5-fluoro-2,3-dihydrobenzofuran-4-yl)methyl)amino)-8-(1-(2-hydroxyethyl)-3,5-dimethyl-1H-pyrazol-4-yl)imidazo[1,5-c]pyrimidine-1-carbonitrile]
0.0345 µM | 0.0142 µM | 0.0105 µM | CCC(O)c1ncc(-c2cnc(NCc3c(F)ccc4c3CCO4)n3cnc(C#N)c23)c(C)n1 (stereo not drawn) [Example 80, 5-(((5-fluoro-2,3-dihydrobenzofuran-4-yl)methyl)amino)-8-(2-(1-hydroxypropyl)-4-methylpyrimidin-5-yl)imidazo[1,5-c]pyrimidine-1-carbonitrile]
0.0208 µM | 0.0477 µM | 0.0094 µM | Cc1nc(S(C)(=O)=O)ccc1-c1cnc(NCc2c(F)ccc3c2CCO3)n2cncc12 [Example 38, N-((5-fluoro-2,3-dihydrobenzofuran-4-yl)methyl)-8-(2-methyl-6-(methylsulfonyl)pyridin-3-yl)imidazo[1,5-c]pyrimidin-5-amine]
0.0241 µM | 0.0156 µM | 0.0114 µM | Cc1ncccc1-c1cnc(NCc2c(F)ccc3c2CCO3)n2cnc(CO)c12 [Example 120, (5-(((5-fluoro-2,3-dihydrobenzofuran-4-yl)methyl)amino)-8-(2-methylpyridin-3-yl)imidazo[1,5-c]pyrimidin-1-yl)methanol]
0.0172 µM | 0.0028 µM | 0.0045 µM | Cn1cncc1-c1cnc(NCc2c(F)ccc3c2CCO3)n2cnc(C#N)c12 [Example 85, 5-(((5-fluoro-2,3-dihydrobenzofuran-4-yl)methyl)amino)-8-(1-methyl-1H-imidazol-5-yl)imidazo[1,5-c]pyrimidine-1-carbonitrile]
0.0126 µM | 0.0509 µM | 0.0103 µM | Cc1ccc(-c2cnc(NCc3c(F)ccc4c3CCO4)n3cncc23)c(C)n1 [Example 43, 8-(2,6-dimethylpyridin-3-yl)-N-((5-fluoro-2,3-dihydrobenzofuran-4-yl)methyl)imidazo[1,5-c]pyrimidin-5-amine]
0.0304 µM | 0.0401 µM | 0.0108 µM | Cc1ncccc1-c1cnc(NCc2c(F)ccc3c2CCO3)n2cnc(C(=O)N(C)C)c12 [Example 105, 5-(((5-fluoro-2,3-dihydrobenzofuran-4-yl)methyl)amino)-N,N-dimethyl-8-(2-methylpyridin-3-yl)imidazo[1,5-c]pyrimidine-1-carboxamide]
0.015 µM | 0.0994 µM | 0.0122 µM | CS(=O)(=O)c1ccc(-c2cnc(NCc3c(F)ccc4c3CCO4)n3cnc(Cl)c23)cc1 [Example 109, 1-chloro-N-((5-fluoro-2,3-dihydrobenzofuran-4-yl)methyl)-8-(4-(methylsulfonyl)phenyl)imidazo[1,5-c]pyrimidin-5-amine]
0.0125 µM | 0.0541 µM | 0.0075 µM | Cc1nc(C(F)F)ccc1-c1cnc(NCc2c(F)ccc3c2CCO3)n2cncc12 [Example 57, 8-(6-(difluoromethyl)-2-methylpyridin-3-yl)-N-((5-fluoro-2,3-dihydrobenzofuran-4-yl)methyl)imidazo[1,5-c]pyrimidin-5-amine]
0.0137 µM | 0.0374 µM | 0.0033 µM | Fc1ccc2c(c1CNc1ncc(-c3ccc(CN4CCC4)cc3)c3cncn13)CCO2 [Example 55, 8-(4-(azetidin-1-ylmethyl)phenyl)-N-((5-fluoro-2,3-dihydrobenzofuran-4-yl)methyl)imidazo[1,5-c]pyrimidin-5-amine]
0.0209 µM | 0.0399 µM | 0.0144 µM | N#Cc1ccc(-c2cnc(NCc3c(F)ccc4c3CCO4)n3cncc23)cn1 [Example 31, 5-(5-(((5-fluoro-2,3-dihydrobenzofuran-4-yl)methyl)amino)imidazo[1,5-c]pyrimidin-8-yl)picolinonitrile]
0.011 µM | 0.0109 µM | 0.0104 µM | Cc1ncc(-c2cnc(NCc3c(F)ccc4c3CCO4)n3cnc(Cl)c23)c(C)n1 [Example 9, 1-chloro-8-(2,4-dimethylpyrimidin-5-yl)-N-((5-fluoro-2,3-dihydrobenzofuran-4-yl)methyl)imidazo[1,5-c]pyrimidin-5-amine]
0.0176 µM | 0.004 µM | 0.0062 µM | Cc1ccc(-c2ncn3c(NCc4c(F)ccc5c4CCO5)ncc(-c4cccnc4C)c23)cn1 [Example 115, N-((5-fluoro-2,3-dihydrobenzofuran-4-yl)methyl)-8-(2-methylpyridin-3-yl)-1-(6-methylpyridin-3-yl)imidazo[1,5-c]pyrimidin-5-amine]
0.0319 µM | 0.0228 µM | 0.0084 µM | Cc1ccc(-c2ncn3c(NCc4c(F)ccc5c4CCO5)ncc(-c4cnc(C)nc4C)c23)cn1 [Example 114, 8-(2,4-dimethylpyrimidin-5-yl)-N-((5-fluoro-2,3-dihydrobenzofuran-4-yl)methyl)-1-(6-methylpyridin-3-yl)imidazo[1,5-c]pyrimidin-5-amine]
0.0252 µM | 0.0361 µM | 0.0149 µM | Cc1c(-c2cnc(NCc3c(F)ccc4c3CCO4)n3cncc23)ccnc1CF [Example 58, N-((5-fluoro-2,3-dihydrobenzofuran-4-yl)methyl)-8-(2-(fluoromethyl)-3-methylpyridin-4-yl)imidazo[1,5-c]pyrimidin-5-amine]
0.0389 µM | 0.0531 µM | 0.0152 µM | Cc1ccc(-c2ncn3c(NCc4c(F)ccc5c4CCO5)ncc(-c4cnc(C)nc4C)c23)c(C)n1 [Example 113, 1-(2,6-dimethylpyridin-3-yl)-8-(2,4-dimethylpyrimidin-5-yl)-N-((5-fluoro-2,3-dihydrobenzofuran-4-yl)methyl)imidazo[1,5-c]pyrimidin-5-amine]
0.026 µM | 0.0744 µM | 0.0155 µM | Fc1cc(-c2cnc(NCc3c(F)ccc4c3CCO4)n3cncc23)ccn1 [Example 35, N-((5-fluoro-2,3-dihydrobenzofuran-4-yl)methyl)-8-(2-fluoropyridin-4-yl)imidazo[1,5-c]pyrimidin-5-amine]
